How the values were obtained:
human recombinant AChE = human recombinant AChE (Homo sapiens, UniProt P22303); assay: Esterase activity assay (Ellman), enzyme deactivation over time, AChE; type: biochemical; settings: FIG. 2
Protocol: (§1) The ability of the compounds to inhibit cholinesterases was evaluated by Ellman's spectrophotometric method (Ellman, G. L., Courtney, K. D., Andres, V. Jr. and Featherstone, R. M. A new and rapid colorimetric determination of acetylcholinesterase activity. Biochemical Pharmacology, 7, 88-95 (1961)) using human recombinant AChE and. acetylthiocholine as the substrate, and human serum BuChE with butyrylthiocholine as the substrate.
(§2) To test for enzyme deactivation over time, loss of enzyme activity was monitored. Briefly, 1.35 mL of buffered DTNB solution (pH 8.0), 0.05 mL of enzyme (0.03 units of human recombinant AChE or 0.05 units of purified human serum BuChE in 0.1% aqueous gelatin containing 0.01% sodium azide) and 0.05 mL of the carbamate dissolved in 50% aqueous acetonitrile at 0.5-5 mM, depending on solubility, were combined in a stoppered cuvette of 1 cm path length. After mixing and bringing the absorbance to zero, 0.05 mL of 4.8 mM aqueous acetyl- or butyrylthiocholine substrate solution was added to the cuvette after incubation of the enzyme with carbamate and buffered DTNB for periods of 30 min or longer. A zero-time sample was also obtained by adding enzyme last to initiate reaction and the second-order rate constants for enzyme deactivation (ka values) were determined. The ka value was calculated by plotting ln (e0/et)/[I] against time, where e0 is the enzymatic activity at time zero (without preincubation of enzyme and inhibitor), et is the enzymatic activity at time t min of preincubation, and [I] is the molar concentration of inhibitor. The slope of this plot gave the second-order rate constant. Experiments were generally done at least in triplicate and the values averaged.

human serum BuChE = target: T1, human serum BuChE (Homo sapiens, UniProt P06276); assay: Esterase activity assay (Ellman), enzyme deactivation over time, BuChE; type: biochemical; settings: FIG. 2
T1 construct: 0.05 units of purified human serum BuChE; from tissue; host or cells: human serum
Protocol: as §1, §2

BuChE = assay: In vitro autoradiography with human tissues (Alzheimer's disease or cognitively normal); type: binding; settings: 3.7 MBq, 18 hours at 37° C., maleate buffer pH 6.8, FIG. 3
Protocol: Human tissue from Alzheimer's disease or cognitively normal individuals was obtained from the Maritime Brain Tissue Bank (Halifax, Canada). These tissues were adjacent […] sections through areas such as the orbitofrontal cortex. The tissues were mounted on glass slides, in maleate buffer pH 6.8, and gently heated on a slide warmer until firmly adhered. The mounted tissue was rehydrated twice for 5 min, in maleate buffer pH 6.8, before placed in a coplin jar. Nine sections occupied each jar. 25 mL of maleate buffer pH 6.8 containing Phenyl 4-([^123I]iodo)phenylcarbamate (3.7 MBq) was added to the coplin jar and the tissue incubated for 18 hours at 37° C. with gentle agitation. At the completion of incubation, the tissue was rinsed twice for 1 min in distilled water and the slides dried on a slide wanner. The tissue was exposed to a high resolution phosphorimaging screen (GE Healthcare) for 22.5 hours. The screen was scanned with a typhoon 9400 imager (GE Healthcare) to produce the autoradiogram. Image contrast was adjusted with Adobe Photoshop CS5.

T1 sequence (P06276 29-602): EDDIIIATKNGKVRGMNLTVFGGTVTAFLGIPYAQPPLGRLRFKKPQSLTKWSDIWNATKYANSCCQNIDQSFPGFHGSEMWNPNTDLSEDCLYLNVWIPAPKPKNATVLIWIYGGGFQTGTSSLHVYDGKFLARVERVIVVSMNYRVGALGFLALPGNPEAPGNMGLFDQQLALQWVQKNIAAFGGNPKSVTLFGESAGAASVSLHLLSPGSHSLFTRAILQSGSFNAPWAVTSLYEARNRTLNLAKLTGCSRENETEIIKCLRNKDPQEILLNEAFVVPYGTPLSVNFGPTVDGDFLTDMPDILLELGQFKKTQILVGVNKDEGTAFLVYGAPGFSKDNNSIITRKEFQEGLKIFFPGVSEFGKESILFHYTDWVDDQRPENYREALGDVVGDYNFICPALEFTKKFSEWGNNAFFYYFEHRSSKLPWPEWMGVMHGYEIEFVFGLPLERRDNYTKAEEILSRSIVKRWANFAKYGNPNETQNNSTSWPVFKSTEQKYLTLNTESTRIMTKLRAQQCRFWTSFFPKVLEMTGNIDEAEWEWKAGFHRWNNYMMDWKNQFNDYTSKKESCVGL
Sequence of human recombinant AChE (P22303 32-614): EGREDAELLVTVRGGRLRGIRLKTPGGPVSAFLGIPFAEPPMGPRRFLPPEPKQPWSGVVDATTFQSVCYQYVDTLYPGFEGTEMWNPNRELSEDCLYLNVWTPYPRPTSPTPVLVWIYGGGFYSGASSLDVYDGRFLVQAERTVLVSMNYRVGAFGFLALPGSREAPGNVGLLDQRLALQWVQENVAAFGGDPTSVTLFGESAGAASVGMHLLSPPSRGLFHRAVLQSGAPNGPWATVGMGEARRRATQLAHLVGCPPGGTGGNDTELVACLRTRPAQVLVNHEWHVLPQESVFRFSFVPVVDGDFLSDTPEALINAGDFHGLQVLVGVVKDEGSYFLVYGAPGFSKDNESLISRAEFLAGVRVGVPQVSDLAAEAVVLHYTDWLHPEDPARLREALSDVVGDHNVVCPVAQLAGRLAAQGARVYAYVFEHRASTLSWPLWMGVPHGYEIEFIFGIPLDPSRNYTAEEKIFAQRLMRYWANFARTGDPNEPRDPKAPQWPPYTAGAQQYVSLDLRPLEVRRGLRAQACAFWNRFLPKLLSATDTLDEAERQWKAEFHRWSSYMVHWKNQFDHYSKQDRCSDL

For `O=C(Nc1ccc(I)cc1)Oc1ccccc1` [phenyl 4-(iodo)phenylcarbamate, Phenyl 4-(iodo)phenylcarbamate], which “effect on esterase activity (inhibition)” value (human recombinant AChE) is on record?
Its value is “clearly has inhibitory effects”.

And the “persistence of interaction (ligand bound to enzyme)” value (human recombinant AChE)?
Its value is “persisted for hours”.

What about the “rate of enzymatic deactivation” value (human recombinant AChE) of the same molecule?
The value was “proceeded rapidly”.

What about the “effect on esterase activity (inhibition)” value (human serum BuChE) of the same molecule?
The value was “clearly has inhibitory effects”.

What about the “persistence of interaction (ligand bound to enzyme)” value (human serum BuChE) of the same molecule?
The value was “persisted for hours”.

And the “rate of enzymatic deactivation” value (human serum BuChE)?
Its value is “proceeded rapidly”.

With `O=C(Nc1ccc([123I])cc1)Oc1ccccc1` [Phenyl 4-([^123I]iodo)phenylcarbamate] as the molecule, how does the “autoradiography: distinction of normal, normal-with-Aβ-plaques and AD brain tissue” value (BuChE) read?
Its value is “normal-with-Aβ-plaques and AD brain tissue can be distinguished”.

Which melting point does the source give for `O=C(Nc1ccc(F)cc1)Oc1ccccc1` here?
The melting point was 160 to 161 °C.
